Data published in ChEMBL document CHEMBL4602644, “Synthesis of PJOV56, a new quinoxalinyl-hydrazone derivative able to induce autophagy and apoptosis in colorectal cancer cells, and related compounds” (Bioorg Med Chem Lett, 2020).
Active and inactive are the calls of the source. The calls are words filed in the database; no cut-off is given here.

Experiments:
HCT-116 [1] = assay: Cytotoxicity against human HCT116 cells assessed as cell growth inhibition at 5 ug/ml measured after 72 hrs by MTT assay relative to control; assay type: functional; conditions: HCT-116, 72 h, read-out: GI
HL-60 = assay: Cytotoxicity against human HL60 cells assessed as cell growth inhibition at 5 ug/ml measured after 72 hrs by MTT assay relative to control; assay type: functional; conditions: HL-60, 72 h, read-out: GI
OVCAR-8 = assay: Cytotoxicity against human OVCAR8 cells assessed as cell growth inhibition at 5 ug/ml measured after 72 hrs by MTT assay relative to control; assay type: functional; conditions: OVCAR-8, 72 h, read-out: GI
L929 = assay: Cytotoxicity against mouse L929 cells assessed as reduction in cell viability measured after 72 hrs by MTT assay; assay type: cell-based; conditions: L929, 72 h
HCT-116 [2] = assay: Cell cycle arrest in human HCT116 cells assessed as accumulation at S phase at 0.2 uM measured after 48 hrs by propidium iodide staining based flow cytometry (reference value: 33.29 %); assay type: functional
HCT-116 [3] = assay: Induction of morphological changes in human HCT116 cells assessed as bleb formation at 0.2 uM measured after 48 hrs by propidium iodide staining based flow cytometry; assay type: functional, cell-based
SF-295 = assay: Cytotoxicity against human SF295 cells assessed as reduction in cell viability measured after 72 hrs by MTT assay; assay type: functional, cell-based; conditions: SF-295, 72 h
HCT-116 [4] = assay: Cell cycle arrest in human HCT116 cells assessed as accumulation at G2/M phase at 0.2 uM measured after 48 hrs by propidium iodide staining based flow cytometry (reference value: 24.98 %); assay type: functional
HCT-116 [5] = assay: Cell cycle arrest in human HCT116 cells assessed as accumulation at G0/G1 phase at 0.2 uM measured after 48 hrs by propidium iodide staining based flow cytometry (reference value: 41.67 %); assay type: functional
HCT-116 [6] = assay: Induction of DNA fragmentation in human HCT116 cells at 0.2 uM measured after 48 hrs by propidium iodide staining based flow cytometry relative to control; assay type: functional
HCT-116 [7] = assay: Induction of morphological changes in human HCT116 cells assessed as cell pyknosis at 0.2 uM measured after 48 hrs by propidium iodide staining based flow cytometry; assay type: functional
HCT-116 [8] = assay: Cell cycle arrest in human HCT116 cells assessed as accumulation at G0/G1 phase at 0.1 uM measured after 48 hrs by propidium iodide staining based flow cytometry (reference value: 41.67 %); assay type: functional
HCT-116 [9] = assay: Cell cycle arrest in human HCT116 cells assessed as accumulation at S phase at 0.1 uM measured after 48 hrs by propidium iodide staining based flow cytometry (reference value: 33.29 %); assay type: functional
HCT-116 [10] = assay: Cell cycle arrest in human HCT116 cells assessed as accumulation at G2/M phase at 0.1 uM measured after 48 hrs by propidium iodide staining based flow cytometry (reference value: 24.98 %); assay type: functional

SMILES	inhibition of growth at 5 µg/mL (HCT-116 [1]) [%]	inhibition of growth at 5 µg/mL (HL-60) [%]	inhibition of growth at 5 µg/mL (OVCAR-8) [%]	other results
C(=N\Nc1cnc2ccccc2n1)/c1ccc[nH]1	54.3	96.3	52.3	
COc1cccc2c1C(=O)c1c(O)c3c(c(O)c1C2=O)C[C@@](O)(C(=O)CO)C[C@@H]3O[C@H]1C[C@H](N)[C@H](O)[C@H](C)O1 [DOXORUBICIN]				IC50 (L929): 660 nM; Activity (HCT-116 [2]): 22.72%; Activity (HCT-116 [3]): Active; IC50 (SF-295): 250 nM; Activity (HCT-116 [4]): 60.53%; Activity (HCT-116 [5]): 16.48%; Activity (HCT-116 [6]): 6.02%; Activity (HCT-116 [7]): Active
C(=N\Nc1cnc2ccccc2n1)/c1cnc[nH]1	77.2	98.8	57.4	
O=[N+]([O-])c1ccc(/C=N/Nc2cnc3ccccc3n2)o1	27.1	12.2	3.95	
C(=N\Nc1cnc2ccccc2n1)/c1ccco1	9.01	0	3.56	
C(=N\Nc1cnc2ccccc2n1)/c1ccncc1	33.7	0	14.9	
O=[N+]([O-])c1ccc(/C=N/Nc2cnc3ccccc3n2)s1	0.03	0	0	
CC(=O)O[C@H]1C(=O)[C@@]2(C)[C@H]([C@H](OC(=O)c3ccccc3)[C@]3(O)C[C@H](OC(=O)[C@H](O)[C@@H](NC(=O)c4ccccc4)c4ccccc4)C(C)=C1C3(C)C)[C@]1(OC(C)=O)CO[C@@H]1C[C@@H]2O [PACLITAXEL]				Activity (HCT-116 [8]): 13.83%; Activity (HCT-116 [9]): 25.09%; Activity (HCT-116 [10]): 61.69%
C(=N\Nc1cnc2ccccc2n1)/c1cccnc1	18.8	0	10.2	
C(=N\Nc1cnc2ccccc2n1)/c1cccs1	21	19.7	0	
